Measurements as given in PMC4941420, “A Rational Approach for the Identification of Non-Hydroxamate HDAC6-Selective Inhibitors” (Scientific Reports, 2016).

Tests used:
[1] = tested on: class I HDACs (HeLa nuclear extracts); test: HDAC activity of HeLa nuclear extracts (Fluor de Lys); assay type: biochemical, human; conditions: 100 μM, average of at least 3 independent experiments in duplicates (Table 1)
HDAC6 [2] = target: T1, HDAC6 (Homo sapiens, UniProt Q9UBN7); test: In vitro enzymatic assay HDAC6 (Fluor de Lys); assay type: biochemical; conditions: for inhibition at 100 µM / HDAC6 % of inhibition at 100 µM: mean ± SD (n=3); for inhibition at 100 µM: read-out: HDAC6 % of inhibition at 100 µM; for selectivity index (SI) with respect to HDAC2: HDAC6 versus HDAC2; for IC50: average of at least 2 independent experiments in duplicates ± SEM
T1 construct: purchased Sigma Aldrich or Reaction Biology Corporation
T1 sequence (Q9UBN7 1-1215): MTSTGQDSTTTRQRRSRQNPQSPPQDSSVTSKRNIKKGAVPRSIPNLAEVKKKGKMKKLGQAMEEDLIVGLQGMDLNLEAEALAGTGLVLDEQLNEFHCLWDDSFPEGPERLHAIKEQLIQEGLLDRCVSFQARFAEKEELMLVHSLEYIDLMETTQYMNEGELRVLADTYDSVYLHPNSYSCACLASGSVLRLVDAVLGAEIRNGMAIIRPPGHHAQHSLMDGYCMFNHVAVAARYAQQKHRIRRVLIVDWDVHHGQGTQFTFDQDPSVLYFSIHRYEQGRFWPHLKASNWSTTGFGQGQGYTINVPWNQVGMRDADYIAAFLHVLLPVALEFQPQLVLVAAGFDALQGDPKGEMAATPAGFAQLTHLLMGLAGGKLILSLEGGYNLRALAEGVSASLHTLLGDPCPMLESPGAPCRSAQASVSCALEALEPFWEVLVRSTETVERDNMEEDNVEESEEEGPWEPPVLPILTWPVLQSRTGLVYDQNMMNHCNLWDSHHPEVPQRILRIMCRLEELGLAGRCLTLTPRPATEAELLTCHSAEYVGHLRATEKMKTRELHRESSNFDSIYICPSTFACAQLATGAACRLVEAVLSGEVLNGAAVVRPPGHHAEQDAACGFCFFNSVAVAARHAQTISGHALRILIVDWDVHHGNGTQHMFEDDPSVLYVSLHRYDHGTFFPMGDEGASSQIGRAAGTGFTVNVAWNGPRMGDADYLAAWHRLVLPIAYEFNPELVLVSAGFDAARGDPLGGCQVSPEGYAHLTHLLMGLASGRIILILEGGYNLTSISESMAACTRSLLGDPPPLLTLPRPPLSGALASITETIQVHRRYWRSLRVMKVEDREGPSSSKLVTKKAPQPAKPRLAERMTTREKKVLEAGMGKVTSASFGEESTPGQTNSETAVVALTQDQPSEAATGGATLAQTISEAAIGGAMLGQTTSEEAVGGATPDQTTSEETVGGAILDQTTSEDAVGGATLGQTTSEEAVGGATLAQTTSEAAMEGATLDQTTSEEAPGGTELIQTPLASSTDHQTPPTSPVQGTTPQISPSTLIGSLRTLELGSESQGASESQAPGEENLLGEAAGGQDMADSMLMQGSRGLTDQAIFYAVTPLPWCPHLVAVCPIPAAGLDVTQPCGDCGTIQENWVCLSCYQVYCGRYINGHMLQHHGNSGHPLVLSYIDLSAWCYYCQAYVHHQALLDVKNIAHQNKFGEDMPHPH

HDAC2 = target: T2, HDAC2 (Homo sapiens, UniProt Q92769); test: In vitro enzymatic assay HDAC2 (Fluor de Lys); assay type: biochemical; conditions: average of at least 2 independent experiments in duplicates ± SEM
T2 construct: purchased Sigma Aldrich or Reaction Biology Corporation

HDAC8 = target: T3, HDAC8 (Homo sapiens, UniProt Q9BY41); test: In vitro enzymatic assay HDAC8 (Fluor de Lys); assay type: biochemical; conditions: average of at least 2 independent experiments in duplicates ± SEM
T3 construct: purchased Sigma Aldrich or Reaction Biology Corporation
T3 sequence (Q9BY41 1-377): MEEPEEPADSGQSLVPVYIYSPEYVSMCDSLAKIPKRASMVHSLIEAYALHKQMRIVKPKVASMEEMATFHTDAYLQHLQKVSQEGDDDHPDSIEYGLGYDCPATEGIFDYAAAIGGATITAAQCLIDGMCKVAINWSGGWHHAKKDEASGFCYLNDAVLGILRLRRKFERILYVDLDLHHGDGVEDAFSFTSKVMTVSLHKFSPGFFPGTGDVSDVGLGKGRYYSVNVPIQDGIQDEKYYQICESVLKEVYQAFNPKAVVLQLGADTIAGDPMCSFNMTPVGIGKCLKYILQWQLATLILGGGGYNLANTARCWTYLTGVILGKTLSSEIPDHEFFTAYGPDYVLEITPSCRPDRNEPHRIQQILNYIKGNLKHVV

HDAC4 = target: T4, HDAC4 (Homo sapiens, UniProt P56524); test: In vitro enzymatic assay HDAC4 (Fluor de Lys); assay type: biochemical; conditions: average of at least 2 independent experiments in duplicates ± SEM
T4 construct: purchased Sigma Aldrich or Reaction Biology Corporation

[3] = Solubility remarks during testing; assay type: physicochemical; conditions: tested at 100 µM in HDAC assay buffer
HDAC6 [4] = test: HDAC ChEMBL dataset / literature, enzymatic IC50 HDAC6; assay type: biochemical; conditions: ratio of ChEMBL IC50 values
HeLa cells = test: Cytotoxicity XTT, HeLa; assay type: cell-based, human; conditions: 72 h, mean ± SD of 3 independent experiments in triplicate, read-out: cytotoxic IC50 HeLa
Experimental: (§1) HeLa and HEK 293 cells (ATCC CRL-1573) were cultured as described above and seeded into 96-well plates at 400 cells/well. Test and standard compounds were added to plate wells in triplicate (0.05% DMSO in culture medium) in a range of six concentrations. Following 72 h of incubation, […] of an activated XTT solution was added to the cells (1 mg/mL). The absorbance was measured at 450 nm after 2 h incubation at 37 °C. The growth of the compound-treated cells was compared with the growth of vehicle-treated control cells. IC50 values were calculated with GraphPad Prism 6.0.

HEK 293 cells = test: Cytotoxicity XTT, HEK 293; assay type: cell-based; conditions: 72 h, mean ± SD of 3 independent experiments in triplicate, read-out: cytotoxic IC50 HEK 293
Experimental: as §1

[5] = tested on: α-tubulin acetylation in HeLa cells; test: Acetyl-α-tubulin sandwich ELISA in HeLa cells; assay type: cell-based, human; conditions: 25 μM, 48 h
Experimental: The acetyl-α-tubulin sandwich ELISA Kit (Pathscan® #7204, Cell Signalling) was used to determine tubulin acetylation levels, and Western blotting was used to evaluate histone H4 acetylation, both methods applied to lysates of treated and non-treated HeLa cells (ATCC CCL-2). Cells were cultured in DMEM medium, 4.5 g/L glucose, L-glutamine (Invitrogen), supplemented with 10% heat-inactivated fetal bovine serum (FBS, Biowest), 100 units/mL penicillin, and 100 μg/mL streptomycin, and 1% non-essential amino acids (Invitrogen) at 37 °C with 5% CO2. Prior to ELISA experiments, cells were seeded into 6-well plates at 150,000 cells/well and transfected with the HDAC6-GFP construct (pEGFP.N1-HDAC6, Addgene)[58], using the Lipofectamine 2000 reagent (Invitrogen). Cells were then treated with test compounds, standards or vehicle (0.5% DMSO in culture medium) for 48 h. After the incubation time, cells were washed with cold DPBS (Invitrogen) and lysates were obtained by recovering cells in cold lysis buffer provided in the ELISA kit, supplemented with a protease inhibitor tablet (SigmaFast, Sigma Aldrich). Briefly, cells were harvested in DPBS and centrifuged. The cell pellet was suspended in 100 μL lysis buffer, vortexed, and kept on melting ice for 30 min. Lysates were then obtained by recovering the supernatant after a centrifugation step of 10 min at 11,000 g, 4 °C. Protein concentration was determined by fluorimetry using the Qubit protein assay kit (Invitrogen). Cell lysates were tested at 1 mg/mL following the instructions provided by the ELISA kit manufacturer. For the Western blotting, cells were seeded into 100 mm Petri dishes and treated for 6 h. After the incubation time, cells were washed with cold DPBS (Invitrogen) supplemented with a protease inhibitor tablet (Sigma Fast, Sigma Aldrich), and lysates were obtained by recovering cells in 100 μL cold lysis buffer (10 mM Hepes pH 7.9, 1.5 mM MgCl2, 10 mM KCl, 0.5 mM DTT, 1.5 mM PMSF, 0.2M HCl) the same way as described above. […]

Cytotoxicity XTT, HeLa = assay type: cell-based, human; conditions: human, HeLa cells, mean ± SD of 3 independent experiments in triplicate, read-out: cytotoxic IC50 HeLa
Experimental: as §1

[6] = Cytotoxicity XTT, HEK 293; assay type: cell-based; conditions: human, HEK 293 cells (ATCC CRL-1573), mean ± SD of 3 independent experiments in triplicate, read-out: cytotoxic IC50 HEK 293
Experimental: as §1

HDAC6 [7] = conditions: cited from earlier work

T4 sequence (P56524 whole entry): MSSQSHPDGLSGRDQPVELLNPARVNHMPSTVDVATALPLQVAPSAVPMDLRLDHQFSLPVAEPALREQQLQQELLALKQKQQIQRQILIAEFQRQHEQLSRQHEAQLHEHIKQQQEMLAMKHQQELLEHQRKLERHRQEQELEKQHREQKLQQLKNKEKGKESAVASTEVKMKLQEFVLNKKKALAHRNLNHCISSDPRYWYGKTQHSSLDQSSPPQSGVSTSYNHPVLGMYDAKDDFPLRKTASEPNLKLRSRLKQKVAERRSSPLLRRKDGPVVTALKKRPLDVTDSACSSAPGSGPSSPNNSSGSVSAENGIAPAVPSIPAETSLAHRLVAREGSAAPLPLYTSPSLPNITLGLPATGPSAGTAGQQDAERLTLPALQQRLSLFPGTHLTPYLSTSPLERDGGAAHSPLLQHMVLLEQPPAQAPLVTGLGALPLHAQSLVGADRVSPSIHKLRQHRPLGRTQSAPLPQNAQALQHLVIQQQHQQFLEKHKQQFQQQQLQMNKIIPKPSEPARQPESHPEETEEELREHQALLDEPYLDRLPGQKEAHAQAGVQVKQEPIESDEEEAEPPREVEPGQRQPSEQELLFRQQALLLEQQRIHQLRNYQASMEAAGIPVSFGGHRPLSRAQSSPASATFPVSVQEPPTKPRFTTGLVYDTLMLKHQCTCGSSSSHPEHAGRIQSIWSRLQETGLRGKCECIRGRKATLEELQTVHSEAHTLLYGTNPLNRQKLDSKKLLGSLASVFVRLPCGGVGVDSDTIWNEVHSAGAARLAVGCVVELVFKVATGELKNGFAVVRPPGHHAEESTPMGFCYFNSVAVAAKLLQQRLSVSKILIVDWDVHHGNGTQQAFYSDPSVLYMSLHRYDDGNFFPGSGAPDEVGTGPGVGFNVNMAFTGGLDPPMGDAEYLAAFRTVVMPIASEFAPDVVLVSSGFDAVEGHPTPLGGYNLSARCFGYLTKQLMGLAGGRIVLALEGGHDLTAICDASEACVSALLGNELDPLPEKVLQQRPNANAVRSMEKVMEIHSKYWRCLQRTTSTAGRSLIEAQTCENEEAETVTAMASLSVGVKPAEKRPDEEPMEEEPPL
T2 sequence (Q92769 whole entry): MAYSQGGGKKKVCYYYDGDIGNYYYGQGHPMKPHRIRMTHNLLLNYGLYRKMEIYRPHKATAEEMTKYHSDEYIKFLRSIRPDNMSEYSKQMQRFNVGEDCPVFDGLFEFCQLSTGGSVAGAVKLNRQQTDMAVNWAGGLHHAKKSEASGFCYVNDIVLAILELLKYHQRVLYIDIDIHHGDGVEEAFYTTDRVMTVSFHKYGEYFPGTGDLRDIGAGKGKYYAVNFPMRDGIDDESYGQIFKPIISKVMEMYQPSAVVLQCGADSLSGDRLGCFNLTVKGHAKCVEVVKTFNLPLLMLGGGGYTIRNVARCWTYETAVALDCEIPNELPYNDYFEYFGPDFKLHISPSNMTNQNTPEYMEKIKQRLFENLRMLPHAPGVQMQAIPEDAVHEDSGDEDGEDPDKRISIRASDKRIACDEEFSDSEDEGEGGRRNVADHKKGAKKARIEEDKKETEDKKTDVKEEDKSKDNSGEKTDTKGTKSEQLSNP

SMILES	inhibition at 100 µM (HDAC6 [2])	IC50 (HDAC6 [2])	IC50 (HDAC2)	IC50 (HDAC8)	IC50 (HDAC4)	HeLa % of inhibition at 100 μM [1]	further results
CC1(C)Cc2ccccc2C2=C/C(=N/O)C(=O)N21 [AG-1]	83.8 ± 2.3%	21.7 ± 1.2 µM	> 1000 µM	0.3 ± 0.005 µM	111 ± 3.5 µM	38.2 ± 1.1%	selectivity index (SI) with respect to HDAC2 (HDAC6 [2]): > 50
CC1(C)Cc2c(c(N3CCOCC3)nc3sc(C(=O)NN)cc23)CO1 [AK-8]							HDAC6 % of inhibition at 100 µM (HDAC6 [2]): 32.5 ± 8.8%; solubility remark in HDAC6 screening [3]: Solubility issues
O=C(CSc1nc2cc(Cl)c3cccnc3c2o1)c1ccc(O)c(O)c1 [AO-1]	66.1 ± 6.9%	16.9 ± 4.9 µM	> 1000 µM	35.1 ± 1.1 µM	73.5 ± 6 µM	20.7 ± 4.0%	selectivity index (SI) with respect to HDAC2 (HDAC6 [2]): > 50
Cc1cc2ccccc2n2c(SCC(=O)Nc3ccc(S(N)(=O)=O)cc3)nnc12 [AQ-1]							HDAC6 % of inhibition at 100 µM (HDAC6 [2]): -16.4 ± 9.3%; solubility remark in HDAC6 screening [3]: Solubility issues
O=C(NO)c1ccc(C(=O)NCCc2ccccc2)cc1 [CHEMBL2333340]							Isoform selectivity (ratio) HDAC2/HDAC6 (HDAC6 [4]): 151.75; Isoform selectivity (ratio) HDAC4/HDAC6 (HDAC6 [4]): 8332.5; Isoform selectivity (ratio) HDAC8/HDAC6 (HDAC6 [4]): 287.5
Cn1cccc1C(=O)N1CCc2cc(C(=O)NO)ccc2C1 [CHEMBL2431901]							Isoform selectivity (ratio) HDAC2/HDAC6 (HDAC6 [4]): 1388.9; Isoform selectivity (ratio) HDAC4/HDAC6 (HDAC6 [4]): 1388.9; Isoform selectivity (ratio) HDAC8/HDAC6 (HDAC6 [4]): 58.33
Cn1cccc1C(=O)N1Cc2ccc(C(=O)NO)cc2C1 [CHEMBL2431906]							Isoform selectivity (ratio) HDAC2/HDAC6 (HDAC6 [4]): 169.2; Isoform selectivity (ratio) HDAC4/HDAC6 (HDAC6 [4]): 84.6
CC(/C=C/C(=O)NO)=C\[C@@H](C)C(=O)c1ccc(N(C)C)cc1 [Trichostatin A]							IC50 (HeLa cells): 1.5 ± 0.3 µM; IC50 (HEK 293 cells): 0.3 ± 0.02 µM
CN1CCc2c(c3ccccc3n2Cc2ccc(C(=O)NO)cc2)C1 [Tubastatin A]							tubulin acetylation [5]: able to induce tubulin acetylation; IC50 at 72 h (Cytotoxicity XTT, HeLa): 11.2 ± 0.4 µM; IC50 at 72 h [6]: 2.4 ± 0.6 µM; IC50 (HDAC6 [7]): […]

More lines, main results first:

inhibition at 100 µM (HDAC6 [2])	IC50 (HDAC6 [2])	IC50 (HDAC2)	IC50 (HDAC8)	IC50 (HDAC4)	SMILES	HeLa % of inhibition at 100 μM [1]	further results
58 ± 1.5%	47.9 ± 4.7 µM	> 200 µM	140 ± 11.5 µM	> 300 µM	Cc1nn(Cc2ccc(C(=O)NN)cc2)c(C)c1Cl [AK-2]	10.0 ± 2.0%	
64.4 ± 1.3%	45.6 ± 1.5 µM	> 200 µM	130 ± 9 µM	> 300 µM	COc1ccccc1OCc1ccc(C(=O)NN)cc1 [AK-5]	5.8 ± 1.3%	
69 ± 2.4%	16.4 ± 1.1 µM	> 1000 µM	> 300 µM	> 300 µM	NNC(=O)c1ccc(COc2ccccc2Br)cc1 [AK-18]	0.4 ± 3.9%	
67.9 ± 7.8%	30.9 ± 2.1 µM	201.7 ± 1.9 µM	74.9 ± 0.8 µM	> 300 µM	NNC(=O)c1ccc(Cn2cc(Br)cn2)cc1 [AK-21]	14.7 ± 11.6%	
63.1 ± 12.2%	74.9 ± 5.2 µM	> 200 µM	86.9 ± 0.7 µM	> 300 µM	NNC(=O)c1ccc(Cn2cc(Cl)cn2)cc1 [AK-24]	33.3 ± 5.4%	
